# Measurements: PubChem BioAssay AID256 (DTP/NCI, 2004)
# Values joined by “and” are separate entries in the source; they are usually repeats but may differ in a detail not shown here. Identical values can stand only once. Toxic doses and inconclusive results are not listed.
# Tested on: CD2F1 mice, L1210 leukemia ip, survival T/C
# Test: NCI In Vivo Anticancer Drug Screen. Data for tumor model L1210 Leukemia (intraperitoneal) in CD2F1 (CDF1) mice
# Settings: higher = longer survival
# In short: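 Read-out first: treated-group measurement over vehicle-control measurement, expressed as a ratio. Animals bore a transplanted tumor line and were dosed with compound or vehicle.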
# [1] = endpoint: mean survival time, dose: 100.0 mg/kg/injection, schedule: Q04DX003 (ip), vehicle: saline with Tween-80
# [2] = endpoint: mean survival time, dose: 200.0 mg/kg/injection, schedule: Q04DX003 (ip), vehicle: saline with Tween-80
# [3] = endpoint: mean survival time, dose: 400.0 mg/kg/injection, schedule: Q04DX003 (ip), vehicle: saline with Tween-80
# [4] = endpoint: mean survival time, dose: 100.0 mg/kg/injection, schedule: Q01DX009 (ip), vehicle: saline with Tween-80
# [5] = endpoint: mean survival time, dose: 100.0 mg/kg/injection, schedule: Q04DX003 (ip), vehicle: saline
# [6] = endpoint: mean survival time, dose: 200.0 mg/kg/injection, schedule: Q01DX009 (ip), vehicle: saline with Tween-80
# [7] = endpoint: mean survival time, dose: 200.0 mg/kg/injection, schedule: Q04DX003 (ip), vehicle: saline
# [8] = endpoint: mean survival time, dose: 400.0 mg/kg/injection, schedule: Q04DX003 (ip), vehicle: saline
# [9] = endpoint: mean survival time, dose: 400.0 mg/kg/injection, schedule: Q01DX009 (ip), vehicle: saline with Tween-80
smiles,measurement,setting,value
OCC1OC(n2cnc3c2NC=NC[C@H]3O)CC1O (stereo partly drawn),T/C,"endpoint: mean survival time, dose: 0.13 mg/kg/injection, schedule: Q01DX005 (ip), vehicle: water",93 % of control
same,T/C,"endpoint: mean survival time, dose: 0.13 mg/kg/injection, schedule: Q01DX009 (ip), vehicle: water",95 % of control
same,T/C,"endpoint: mean survival time, dose: 0.2 mg/kg/injection, schedule: Q03HX024 (ip), vehicle: saline with Tween-80",102 % of control
same,T/C,"endpoint: mean survival time, dose: 0.25 mg/kg/injection, schedule: Q01DX005 (ip), vehicle: water",108 % of control
same,T/C,"endpoint: mean survival time, dose: 0.25 mg/kg/injection, schedule: Q01DX009 (ip), vehicle: water",101 % of control
same,T/C,"endpoint: mean survival time, dose: 0.25 mg/kg/injection, schedule: Q04DX002 (ip), vehicle: water",94 % of control
same,T/C,"endpoint: mean survival time, dose: 0.25 mg/kg/injection, schedule: Q04DX003 (ip), vehicle: water",99 % of control
same,T/C,"endpoint: mean survival time, dose: 0.3 mg/kg/injection, schedule: Q03HX024 (ip), vehicle: saline with Tween-80",101 % of control
same,T/C,"endpoint: mean survival time, dose: 0.4 mg/kg/injection, schedule: Q03HX024 (ip), vehicle: saline with Tween-80",115 % of control and 103 % of control
same,T/C,"endpoint: mean survival time, dose: 0.5 mg/kg/injection, schedule: Q03HX024 (ip), vehicle: saline with Tween-80",116 % of control
same,T/C,"endpoint: mean survival time, dose: 0.5 mg/kg/injection, schedule: Q04DX002 (ip), vehicle: water",101 % of control
same,T/C,"endpoint: mean survival time, dose: 0.5 mg/kg/injection, schedule: Q04DX003 (ip), vehicle: water",96 % of control
same,T/C,"endpoint: mean survival time, dose: 0.6 mg/kg/injection, schedule: Q03HX024 (ip), vehicle: saline with Tween-80",110 % of control
same,T/C,"endpoint: mean survival time, dose: 0.75 mg/kg/injection, schedule: Q03HX024 (ip), vehicle: saline with Tween-80",111 % of control
same,T/C,"endpoint: median survival time, dose: 0.1 mg/kg/injection, schedule: Q01DX009 (ip), vehicle: saline",101 % of control
same,T/C,"endpoint: median survival time, dose: 0.13 mg/kg/injection, schedule: Q01DX009 (ip), vehicle: saline",102 % of control
same,T/C,"endpoint: median survival time, dose: 0.21 mg/kg/injection, schedule: Q01DX009 (ip), vehicle: saline",113 % of control
same,T/C,"endpoint: median survival time, dose: 0.25 mg/kg/injection, schedule: Q01DX009 (ip), vehicle: saline",104 % of control and 108 % of control
same,T/C,"endpoint: median survival time, dose: 0.25 mg/kg/injection, schedule: Q03HX012 (ip), vehicle: saline",112 % of control
same,T/C,"endpoint: median survival time, dose: 0.3 mg/kg/injection, schedule: Q01DX009 (ip), vehicle: saline",104 % of control
same,T/C,"endpoint: median survival time, dose: 0.5 mg/kg/injection, schedule: Q01DX009 (ip), vehicle: saline",104 % of control and 110 % of control
same,T/C,"endpoint: median survival time, dose: 0.5 mg/kg/injection, schedule: Q03HX012 (ip), vehicle: saline",113 % of control
same,T/C,"endpoint: median survival time, dose: 1.0 mg/kg/injection, schedule: Q01DX009 (ip), vehicle: saline",108 % of control
same,T/C,"endpoint: median survival time, dose: 2.0 mg/kg/injection, schedule: Q01DX009 (ip), vehicle: saline",102 % of control
same,T/C,"endpoint: median survival time, dose: 3.0 mg/kg/injection, schedule: Q01DX005 (ip), vehicle: saline",95 % of control
same,T/C,"endpoint: median survival time, dose: 3.0 mg/kg/injection, schedule: Q01DX009 (ip), vehicle: saline",109 % of control
same,T/C,"endpoint: median survival time, dose: 4.0 mg/kg/injection, schedule: Q01DX005 (ip), vehicle: saline",100 % of control
same,T/C,"endpoint: median survival time, dose: 5.0 mg/kg/injection, schedule: Q01DX005 (ip), vehicle: saline",97 % of control
same,T/C,"endpoint: median survival time, dose: 6.0 mg/kg/injection, schedule: Q01DX005 (ip), vehicle: saline",97 % of control
same,T/C,"endpoint: median survival time, dose: 7.0 mg/kg/injection, schedule: Q01DX005 (ip), vehicle: saline",104 % of control
same,T/C,"endpoint: median survival time, dose: 10.0 mg/kg/injection, schedule: Q01DX009 (ip), vehicle: saline",109 % of control
Cc1ccc2c(C)cc(=O)[nH]c2c1,T/C,[1],95 % of control
same,T/C,[2],95 % of control
same,T/C,[3],101 % of control
c1ccc(NN=C(c2ccccc2)c2ccccc2)cc1,T/C,[1],95 % of control
same,T/C,[2],95 % of control
same,T/C,[3],98 % of control
Nc1ccc(S(=O)(=O)F)c(Cl)c1,T/C,[4],97 % of control
same,T/C,[5],95 % of control
same,T/C,[6],100 % of control
same,T/C,[7],101 % of control
same,T/C,[8],95 % of control
Oc1ccc(N=Cc2ccccc2O)cc1,T/C,"endpoint: mean survival time, dose: 178.0 mg/kg/injection, schedule: Q04DX003 (ip), vehicle: carboxymethylcellulose (CMC)",101 % of control
same,T/C,"endpoint: mean survival time, dose: 267.0 mg/kg/injection, schedule: Q04DX003 (ip), vehicle: carboxymethylcellulose (CMC)",102 % of control
same,T/C,"endpoint: mean survival time, dose: 400.0 mg/kg/injection, schedule: Q04DX003 (ip), vehicle: carboxymethylcellulose (CMC)",98 % of control
same,T/C,"endpoint: mean survival time, dose: 600.0 mg/kg/injection, schedule: Q04DX003 (ip), vehicle: carboxymethylcellulose (CMC)",101 % of control
CCc1ccc(NN=Nc2ccccc2C#N)cc1,T/C,[1],95 % of control
same,T/C,[2],95 % of control
same,T/C,[3],98 % of control
CCSC(=N)N,T/C,[5],94 % of control
same,T/C,[7],91 % of control
same,T/C,[8],97 % of control
C[S+](C)CCC(N)C(=O)O (stereo not drawn) (tested in a mixture with another compound),T/C,"endpoint: median survival time, dose: 3.13 mg/kg/injection, schedule: Q04DX002 (ip), vehicle: saline",111 % of control
same,T/C,"endpoint: median survival time, dose: 6.25 mg/kg/injection, schedule: Q04DX002 (ip), vehicle: saline",111 % of control
same,T/C,"endpoint: median survival time, dose: 12.5 mg/kg/injection, schedule: Q04DX002 (ip), vehicle: saline",111 % of control
same,T/C,"endpoint: median survival time, dose: 25.0 mg/kg/injection, schedule: Q04DX002 (ip), vehicle: saline",111 % of control and 108 % of control
same,T/C,"endpoint: median survival time, dose: 50.0 mg/kg/injection, schedule: Q04DX002 (ip), vehicle: saline",111 % of control and 94 % of control
same,T/C,"endpoint: median survival time, dose: 100.0 mg/kg/injection, schedule: Q04DX002 (ip), vehicle: saline",117 % of control and 100 % of control
same,T/C,"endpoint: median survival time, dose: 400.0 mg/kg/injection, schedule: Q04DX002 (ip), vehicle: saline",100 % of control
CCC[CH2][Sn]1([CH2]CCC)[O]OC2(CCCCC2)[O]1,T/C,"endpoint: mean survival time, dose: 1.25 mg/kg/injection, schedule: Q01DX009 (ip), vehicle: saline with Tween-80",105 % of control
same,T/C,"endpoint: mean survival time, dose: 2.5 mg/kg/injection, schedule: Q01DX009 (ip), vehicle: saline with Tween-80",105 % of control
same,T/C,"endpoint: mean survival time, dose: 5.0 mg/kg/injection, schedule: Q01DX009 (ip), vehicle: saline with Tween-80",105 % of control
Cc1cc(C)cc(NC(=O)c2ccccc2N)c1,T/C,[4],107 % of control
same,T/C,[6],95 % of control
same,T/C,[9],107 % of control
O=S(O)C(=Nc1ccccc1)Nc1ccccc1,T/C,[4],94 % of control
same,T/C,[6],106 % of control
O=C(O)C(O)C(O)C(OC1OC(CO)C(O)C(O)C1O)C(O)CO.[Br][Pt].[NH-]C1CCCCC1[NH-] (stereo not drawn),T/C,"endpoint: median survival time, dose: 6.25 mg/kg/injection, schedule: Q04DX003 (ip), vehicle: saline",158 % of control
same,T/C,"endpoint: median survival time, dose: 12.5 mg/kg/injection, schedule: Q04DX003 (ip), vehicle: saline",175 % of control
same,T/C,"endpoint: median survival time, dose: 25.0 mg/kg/injection, schedule: Q04DX003 (ip), vehicle: saline",163 % of control and 212 % of control
same,T/C,"endpoint: median survival time, dose: 50.0 mg/kg/injection, schedule: Q04DX003 (ip), vehicle: saline",178 % of control and 200 % of control
CN1NC=Nc2c1[nH]cnc2=S,T/C,"endpoint: mean survival time, dose: 75.0 mg/kg/injection, schedule: Q01DX001 (ip), vehicle: other",89 % of control
same,T/C,"endpoint: mean survival time, dose: 150.0 mg/kg/injection, schedule: Q01DX001 (ip), vehicle: other",96 % of control
COc1ccc(OC)c(C2C(C#N)C(C=O)NC(C=O)C2C#N)c1 (stereo not drawn),T/C,"endpoint: mean survival time, dose: 100.0 mg/kg/injection, schedule: Q01DX009 (ip), vehicle: other",100 % of control
same,T/C,"endpoint: mean survival time, dose: 200.0 mg/kg/injection, schedule: Q01DX009 (ip), vehicle: other",104 % of control
same,T/C,"endpoint: mean survival time, dose: 400.0 mg/kg/injection, schedule: Q01DX009 (ip), vehicle: other",100 % of control
COc1ccc(NC(=O)CC(C)=O)cc1,T/C,[4],97 % of control
same,T/C,[6],103 % of control
same,T/C,[9],100 % of control
Cc1ccc(NC(=O)COc2cc(Cl)c(Cl)cc2Cl)cc1C,T/C,[1],102 % of control
same,T/C,[2],93 % of control
same,T/C,[3],96 % of control
NC(N)=NCCCC(N=Cc1ccccc1)C(=O)O (stereo not drawn),T/C,"endpoint: mean survival time, dose: 100.0 mg/kg/injection, schedule: Q01DX001 (ip), vehicle: saline",102 % of control
same,T/C,"endpoint: mean survival time, dose: 200.0 mg/kg/injection, schedule: Q01DX001 (ip), vehicle: saline",102 % of control
same,T/C,"endpoint: mean survival time, dose: 400.0 mg/kg/injection, schedule: Q01DX001 (ip), vehicle: saline",90 % of control
CC(=O)OC1CCC2(C)C(CCC3C2CC(OC(C)=O)C2(C)C3CCC2C2(C)SCCS2)C1 (stereo not drawn),T/C,"endpoint: mean survival time, dose: 50.0 mg/kg/injection, schedule: Q04DX002 (ip), vehicle: Klucel (hydroxypropylcellulose) (HPC)",95 % of control
same,T/C,"endpoint: mean survival time, dose: 100.0 mg/kg/injection, schedule: Q04DX002 (ip), vehicle: Klucel (hydroxypropylcellulose) (HPC)",98 % of control
same,T/C,"endpoint: mean survival time, dose: 200.0 mg/kg/injection, schedule: Q04DX002 (ip), vehicle: Klucel (hydroxypropylcellulose) (HPC)",88 % of control
N=c1ccccn1CCO,T/C,"endpoint: mean survival time, dose: 75.0 mg/kg/injection, schedule: Q01DX001 (ip), vehicle: saline",100 % of control
same,T/C,"endpoint: mean survival time, dose: 150.0 mg/kg/injection, schedule: Q01DX001 (ip), vehicle: saline",108 % of control
O=[N+]([O-])c1cc(S(=O)(=O)c2ccc(N3CCOCC3)c([N+](=O)[O-])c2)ccc1N1CCOCC1,T/C,[4],93 % of control
same,T/C,[6],101 % of control
same,T/C,[9],92 % of control
